Test results taken from US12252524B2, “GIP/GLP1 co-agonist compounds” (Eli Lilly and Company, priority 2018, dated 2025).
Numbered stars: 1 amine (or outer) side, 2 acyl side, 3 side chain; on linkers, the order of the positions; unused ones are H or OH. Square brackets hold non-standard residues; d marks the D form. Side chains are listed from the residue outwards. Peptide text beside a SMILES is read from it. * marks the point of attachment. C20 diacid = O=C(O)CCCCCCCCCCCCCCCCCCC(=O)*; C18 diacid = O=C(O)CCCCCCCCCCCCCCCCC(=O)*; αMePhe(2-F) = C[C@](N)(Cc1ccccc1F)C(=O)O; γGlu = O=C(O)[C@H](CCC(=O)[*:2])N[*:1]; αMeL = CC(C)C[C@](C)(N)C(=O)O; αMeP = C[C@@]1(C(=O)O)CCCN1; AEEA = NCCOCCOCC(=O)O; Aib = CC(C)(N)C(=O)O

Key:
[1] = molecular target: human GLP-1 receptor (GLP-1R) (Homo sapiens, UniProt P43220); experiment: cAMP pharmacological functional assay in presence of casein, hGLP-1R; assay type: cell-based; conditions: HEK293 cells expressing hGLP-1R, 0.1% Casein, geometric mean; read-out: hGLP1R cAMP Rel EC50 nM (SEM, n)
human GLP-1 receptor (GLP-1R), sequence (P43220 24-463): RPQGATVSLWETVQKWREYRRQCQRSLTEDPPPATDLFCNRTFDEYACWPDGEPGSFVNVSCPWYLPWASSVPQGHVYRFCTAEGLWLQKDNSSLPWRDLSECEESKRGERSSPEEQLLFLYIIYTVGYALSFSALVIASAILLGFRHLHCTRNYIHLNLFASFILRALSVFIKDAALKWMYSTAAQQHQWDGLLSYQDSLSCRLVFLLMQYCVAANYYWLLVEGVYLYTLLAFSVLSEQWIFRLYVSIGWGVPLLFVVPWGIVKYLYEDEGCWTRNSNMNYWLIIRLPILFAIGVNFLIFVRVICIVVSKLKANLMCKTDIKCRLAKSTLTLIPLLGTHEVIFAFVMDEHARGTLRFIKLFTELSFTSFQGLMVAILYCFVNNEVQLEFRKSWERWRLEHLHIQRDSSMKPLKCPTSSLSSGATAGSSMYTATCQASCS

[2] = molecular target: T1, gastric inhibitory peptide receptor (GIPR) (Homo sapiens, UniProt P48546); experiment: cAMP pharmacological functional assay in presence of casein, hGIPR; assay type: cell-based; conditions: HEK293 cells expressing hGIPR, 0.1% Casein, geometric mean; read-out: hGIPR cAMP Rel EC50 nM (SEM, n)
T1 sequence (P48546 22-466): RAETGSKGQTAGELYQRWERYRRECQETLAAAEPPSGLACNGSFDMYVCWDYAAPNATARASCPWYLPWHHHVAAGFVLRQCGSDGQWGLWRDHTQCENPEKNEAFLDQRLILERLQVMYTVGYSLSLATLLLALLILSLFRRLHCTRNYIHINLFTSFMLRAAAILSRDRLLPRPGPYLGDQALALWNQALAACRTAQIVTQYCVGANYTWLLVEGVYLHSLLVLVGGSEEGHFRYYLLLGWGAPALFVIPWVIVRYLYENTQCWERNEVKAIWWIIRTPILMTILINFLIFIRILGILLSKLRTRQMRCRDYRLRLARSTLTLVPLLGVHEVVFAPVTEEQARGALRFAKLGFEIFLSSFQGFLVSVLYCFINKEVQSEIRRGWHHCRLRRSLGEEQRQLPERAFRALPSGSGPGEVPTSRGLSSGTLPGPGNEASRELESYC

| Structure (SMILES) | EC50 [1] | EC50 [2] |
| --- | --- | --- |
| CC[C@H](C)[C@H](NC(=O)[C@H](CC(C)C)NC(=O)[C@H](Cc1ccc(O)cc1)NC(=O)[C@H](CCC(=O)O)NC(=O)[C@@H](NC(=O)[C@H](Cc1ccccc1)NC(=O)[C@H](C)NC(=O)[C@H](Cc1c[nH]cn1)NC(=O)[C@H](CCC(N)=O)NC(=O)[C@H](C)NC(=O)[C@H](CCCCNC(=O)COCCOCCNC(=O)COCCOCCNC(=O)CC[C@H](NC(=O)CCCCCCCCCCCCCCCCCCC(=O)O)C(=O)O)NC(=O)[C@H](CCC(=O)O)NC(=O)[C@H](CC(=O)O)NC(=O)[C@H](CC(C)C)NC(=O)[C@H](CC(C)C)NC(=O)[C@@H](NC(=O)[C@H](CO)NC(=O)[C@H](Cc1ccc(O)cc1)NC(=O)[C@H](CC(=O)O)NC(=O)[C@H](CO)NC(=O)[C@@H](NC(=O)[C@H](Cc1ccccc1)NC(=O)[C@@H](NC(=O)CNC(=O)[C@H](CCC(=O)O)NC(=O)[C@]1(C)CCCN1C(=O)[C@@H](N)Cc1ccc(O)cc1)[C@@H](C)O)[C@@H](C)O)[C@@H](C)CC)[C@@H](C)CC)C(=O)N[C@@H](CCC(=O)O)C(=O)NCC(=O)NCC(=O)N1CCC[C@H]1C(=O)N[C@@H](CO)C(=O)N[C@@H](CO)C(=O)NCC(=O)N[C@@H](C)C(=O)N1CCC[C@H]1C(=O)N1CCC[C@H]1C(=O)N1CCC[C@H]1C(=O)N[C@@H](CO)C(N)=O [Example 194] (H-Y[αMeP]EGTFTSDYSILLDEK([AEEA-AEEA-γGlu-C20 diacid])AQHAFIEYLIEGGPSSGAPPPS-NH2; N-terminus assumed) | 0.284 nM | 0.423 nM |
| CC[C@H](C)[C@H](NC(=O)[C@H](CC(C)C)NC(=O)[C@H](Cc1ccc(O)cc1)NC(=O)[C@@H](CCC(=O)O)NC(=O)[C@@H](NC(=O)[C@H](Cc1ccccc1)NC(=O)[C@H](CCC(=O)O)NC(=O)C(C)(C)NC(=O)[C@H](CCC(N)=O)NC(=O)[C@H](C)NC(=O)[C@H](CCCCNC(=O)COCCOCCNC(=O)COCCOCCNC(=O)CC[C@H](NC(=O)CCCCCCCCCCCCCCCCCCC(=O)O)C(=O)O)NC(=O)[C@H](CCC(=O)O)NC(=O)[C@H](CC(=O)O)NC(=O)[C@H](CC(C)C)NC(=O)[C@](C)(CC(C)C)NC(=O)[C@@H](NC(=O)[C@H](CO)NC(=O)[C@H](CCC(N)=O)NC(=O)[C@H](CC(=O)O)NC(=O)[C@H](CO)NC(=O)[C@@H](NC(=O)[C@](C)(Cc1ccccc1F)NC(=O)[C@@H](NC(=O)CNC(=O)[C@H](CCC(=O)O)NC(=O)C(C)(C)NC(=O)[C@@H](N)Cc1ccc(O)cc1)[C@@H](C)O)[C@@H](C)O)[C@@H](C)CC)[C@@H](C)CC)C(=O)N[C@@H](CCC(=O)O)C(=O)NCC(=O)NCC(=O)N1CCC[C@H]1C(=O)N[C@@H](CO)C(=O)N[C@@H](CO)C(=O)NCC(=O)N[C@@H](C)C(=O)N1CCC[C@H]1C(=O)N1CCC[C@H]1C(=O)N1CCC[C@H]1C(=O)N[C@@H](CO)C(N)=O [Example 187] (H-Y[Aib]EGT[αMePhe(2-F)]TSDQSI[αMeL]LDEK([AEEA-AEEA-γGlu-C20 diacid])AQ[Aib]EFI[dE]YLIEGGPSSGAPPPS-NH2) | 0.0577 nM | 0.0371 nM |
| CC[C@H](C)[C@H](NC(=O)[C@H](CC(C)C)NC(=O)[C@H](Cc1ccc(O)cc1)NC(=O)[C@@H](CCC(=O)O)NC(=O)[C@@H](NC(=O)[C@H](Cc1ccccc1)NC(=O)[C@@H](NC(=O)C(C)(C)NC(=O)[C@H](CCC(N)=O)NC(=O)[C@H](C)NC(=O)[C@H](CCCCNC(=O)COCCOCCNC(=O)COCCOCCNC(=O)CC[C@H](NC(=O)CCCCCCCCCCCCCCCCC(=O)O)C(=O)O)NC(=O)[C@H](CCC(=O)O)NC(=O)[C@H](CC(=O)O)NC(=O)[C@H](CC(C)C)NC(=O)[C@](C)(CC(C)C)NC(=O)[C@@H](NC(=O)[C@H](CO)NC(=O)[C@H](Cc1c[nH]cn1)NC(=O)[C@H](CC(=O)O)NC(=O)[C@H](CO)NC(=O)[C@@H](NC(=O)[C@](C)(Cc1ccccc1F)NC(=O)[C@@H](NC(=O)CNC(=O)[C@H](CCC(=O)O)NC(=O)C(C)(C)NC(=O)[C@@H](N)Cc1ccc(O)cc1)[C@@H](C)O)[C@@H](C)O)[C@@H](C)CC)[C@@H](C)O)[C@@H](C)CC)C(=O)N[C@@H](CCC(=O)O)C(=O)NCC(=O)NCC(=O)N1CCC[C@H]1C(=O)N[C@@H](CO)C(=O)N[C@@H](CO)C(=O)NCC(=O)N[C@@H](C)C(=O)N1CCC[C@H]1C(=O)N1CCC[C@H]1C(=O)N1CCC[C@H]1C(=O)N[C@@H](CO)C(N)=O [Example 169] (H-Y[Aib]EGT[αMePhe(2-F)]TSDHSI[αMeL]LDEK([AEEA-AEEA-γGlu-C18 diacid])AQ[Aib]TFI[dE]YLIEGGPSSGAPPPS-NH2) | 3.37 nM | 0.86 nM |
| CC[C@H](C)[C@H](NC(=O)[C@H](CC(C)C)NC(=O)[C@H](Cc1ccc(O)cc1)NC(=O)[C@@H](CCC(=O)O)NC(=O)[C@@H](NC(=O)[C@H](Cc1ccccc1)NC(=O)[C@@H](NC(=O)C(C)(C)NC(=O)[C@H](CCC(N)=O)NC(=O)[C@H](C)NC(=O)[C@H](CCCCNC(=O)COCCOCCNC(=O)COCCOCCNC(=O)CC[C@H](NC(=O)CCCCCCCCCCCCCCCCCCC(=O)O)C(=O)O)NC(=O)[C@H](CCC(=O)O)NC(=O)[C@H](CC(=O)O)NC(=O)[C@H](CC(C)C)NC(=O)[C@](C)(CC(C)C)NC(=O)[C@@H](NC(=O)[C@H](CO)NC(=O)[C@H](Cc1c[nH]cn1)NC(=O)[C@H](CC(=O)O)NC(=O)[C@H](CO)NC(=O)[C@@H](NC(=O)[C@](C)(Cc1ccccc1F)NC(=O)[C@@H](NC(=O)CNC(=O)[C@H](CCC(=O)O)NC(=O)C(C)(C)NC(=O)[C@@H](N)Cc1ccc(O)cc1)[C@@H](C)O)[C@@H](C)O)[C@@H](C)CC)[C@@H](C)O)[C@@H](C)CC)C(=O)N[C@@H](CCC(=O)O)C(=O)NCC(=O)NCC(=O)N1CCC[C@H]1C(=O)N[C@@H](CO)C(=O)N[C@@H](CO)C(=O)NCC(N)=O [Example 167] (H-Y[Aib]EGT[αMePhe(2-F)]TSDHSI[αMeL]LDEK([AEEA-AEEA-γGlu-C20 diacid])AQ[Aib]TFI[dE]YLIEGGPSSG-NH2) | 1.2 nM | 0.617 nM |
| CC[C@H](C)[C@H](NC(=O)[C@H](CC(C)C)NC(=O)[C@H](Cc1ccc(O)cc1)NC(=O)[C@H](CCC(=O)O)NC(=O)[C@@H](NC(=O)[C@H](Cc1ccccc1)NC(=O)[C@H](C)NC(=O)C(C)(C)NC(=O)[C@H](CCC(N)=O)NC(=O)[C@H](C)NC(=O)[C@H](CCCCNC(=O)COCCOCCNC(=O)COCCOCCNC(=O)CC[C@H](NC(=O)CCCCCCCCCCCCCCCCCCC(=O)O)C(=O)O)NC(=O)[C@H](CCCCN)NC(=O)[C@H](CC(=O)O)NC(=O)[C@H](CC(C)C)NC(=O)[C@H](CC(C)C)NC(=O)[C@@H](NC(=O)[C@H](CO)NC(=O)[C@H](C)NC(=O)[C@H](CC(=O)O)NC(=O)[C@H](CO)NC(=O)[C@@H](NC(=O)[C@H](Cc1ccccc1)NC(=O)[C@@H](NC(=O)CNC(=O)[C@H](CCC(=O)O)NC(=O)C(C)(C)NC(=O)[C@@H](N)Cc1ccc(O)cc1)[C@@H](C)O)[C@@H](C)O)[C@@H](C)CC)[C@@H](C)CC)C(=O)N[C@@H](CCC(=O)O)C(=O)N[C@@H](C)C(=O)NCC(=O)N1CCC[C@H]1C(=O)N[C@@H](CO)C(=O)N[C@@H](CO)C(=O)NCC(=O)N[C@@H](C)C(=O)N1CCC[C@H]1C(=O)N1CCC[C@H]1C(=O)N1CCC[C@H]1C(=O)N[C@@H](CO)C(N)=O [Example 136] (H-Y[Aib]EGTFTSDASILLDKK([AEEA-AEEA-γGlu-C20 diacid])AQ[Aib]AFIEYLIEAGPSSGAPPPS-NH2) | 0.06 nM | 3.39 nM |
| CC[C@H](C)[C@H](NC(=O)[C@H](CC(C)C)NC(=O)[C@H](Cc1ccc(O)cc1)NC(=O)[C@H](CCC(=O)O)NC(=O)[C@@H](NC(=O)[C@H](Cc1ccccc1)NC(=O)[C@H](C)NC(=O)C(C)(C)NC(=O)[C@H](CCC(N)=O)NC(=O)[C@H](C)NC(=O)[C@H](CCCCNC(=O)COCCOCCNC(=O)COCCOCCNC(=O)CC[C@H](NC(=O)CCCCCCCCCCCCCCCCCCC(=O)O)C(=O)O)NC(=O)[C@H](CCC(=O)O)NC(=O)[C@H](CC(=O)O)NC(=O)[C@H](CC(C)C)NC(=O)[C@H](CC(C)C)NC(=O)[C@@H](NC(=O)[C@H](CO)NC(=O)[C@H](Cc1ccc(O)cc1)NC(=O)[C@H](CC(=O)O)NC(=O)[C@H](CO)NC(=O)[C@@H](NC(=O)[C@H](Cc1ccccc1)NC(=O)[C@@H](NC(=O)CNC(=O)[C@H](CCC(=O)O)NC(=O)C(C)(C)NC(=O)[C@@H](N)Cc1ccc(O)cc1)[C@@H](C)O)[C@@H](C)O)[C@@H](C)CC)[C@@H](C)CC)C(=O)N[C@@H](CCC(=O)O)C(=O)NCC(=O)NCC(=O)N1CCC[C@H]1C(=O)N[C@@H](CO)C(=O)N[C@@H](CO)C(=O)NCC(=O)N[C@@H](C)C(=O)N1CCC[C@H]1C(=O)N1CCC[C@H]1C(=O)N1CCC[C@H]1C(=O)N[C@@H](CO)C(N)=O [Example 259] (H-Y[Aib]EGTFTSDYSILLDEK([AEEA-AEEA-γGlu-C20 diacid])AQ[Aib]AFIEYLIEGGPSSGAPPPS-NH2; N-terminus assumed) | 0.145 nM | 0.257 nM |
